Data from ChEMBL document CHEMBL1201862, “PubChem BioAssay data set” (2004).
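Each compound was tested at five concentrations against cells in 96-well plates for 48 hours. GI50 marks 50% less growth.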 Activity calls are given as the source filed them. No stated cut-off is given here; in the data, active = GI50 up to about 1.1 µM and inactive = higher.

Columns and labels:
Test in all cases: DTP human tumour cell line panel, 48 h
A549 = tested on: A549
EKVX = tested on: EKVX
SK-MEL-2 = tested on: SK-MEL-2
UO-31 = tested on: UO-31
RPMI-8226 = tested on: RPMI-8226
SF-539 = tested on: SF-539
SN12C = tested on: SN12C
MOLT-4 = tested on: MOLT-4
UACC-62 = tested on: UACC-62
SF-268 = tested on: SF-268
LOX IMVI = tested on: LOX IMVI
SR = tested on: SR
SW-620 = tested on: SW-620
HL-60 = tested on: HL-60
KM12 = tested on: KM12

Row | Structure (SMILES) | GI50 (A549) | GI50 (EKVX) | GI50 (SK-MEL-2) | GI50 (UO-31) | GI50 (RPMI-8226) | GI50 (SF-539) | GI50 (SN12C) | GI50 (MOLT-4) | GI50 (UACC-62) | GI50 (SF-268) | GI50 (LOX IMVI) | GI50 (SR) | GI50 (SW-620) | GI50 (HL-60) | GI50 (KM12)
1 | CCOC(=O)c1c(-c2[nH]c(C(=O)OCc3ccccc3)c(C)c2C(=O)OCC)[nH]c(C(=O)OCc2ccccc2)c1C | > 100 µM (inactive) | > 100 µM (inactive) | > 100 µM (inactive) | > 100 µM (inactive) | > 100 µM (inactive) | 48.4 µM (inactive) | > 100 µM (inactive) | > 100 µM (inactive) | > 100 µM (inactive) | > 100 µM (inactive) | > 100 µM (inactive) | > 100 µM (inactive) | > 100 µM (inactive) | – | –
2 | N=C1CSC2=NC3=C(CCC/C3=C\c3ccccc3)C(c3ccccc3)N12 (stereo not given) | 4.07 µM (inactive) | 2.62 µM (inactive) | 2.27 µM (inactive) | 11.2 µM (inactive) | 2.16 µM (inactive) | 6 µM (inactive) | 11.5 µM (inactive) | 2.49 µM (inactive) | 9.23 µM (inactive) | 11.8 µM (inactive) | 2.26 µM (inactive) | – | 3.92 µM (inactive) | 2.34 µM (inactive) | 3.7 µM (inactive)
3 | CC1=C(C(=O)Nc2ccccc2)C(c2cccc3ccccc23)C(C(=O)Nc2ccccc2)=C(C)N1 | 28 µM (inactive) | 11.8 µM (inactive) | 17 µM (inactive) | 21.6 µM (inactive) | – | 20.4 µM (inactive) | 18 µM (inactive) | 0.767 µM (active) | 13.8 µM (inactive) | 21.5 µM (inactive) | 16.7 µM (inactive) | 3.11 µM (inactive) | 22.4 µM (inactive) | 17.1 µM (inactive) | –
4 | N=C(N)NS(=O)(=O)c1ccc(Nc2c3ccccc3nc3c(C(=O)Nc4ccc(S(N)(=O)=O)cc4)ccc(Cl)c23)cc1 | > 100 µM (inactive) | > 100 µM (inactive) | – | > 100 µM (inactive) | > 100 µM (inactive) | > 100 µM (inactive) | > 100 µM (inactive) | > 100 µM (inactive) | > 100 µM (inactive) | > 100 µM (inactive) | > 100 µM (inactive) | > 100 µM (inactive) | > 100 µM (inactive) | 47.8 µM (inactive) | > 100 µM (inactive)
5 | CCC1C(C)c2c([nH]c3ccccc23)C2C(=O)N(c3ccccc3)C(=O)C21 (stereo not given) | 17.3 µM (inactive) | 14 µM (inactive) | – | – | 11.9 µM (inactive) | 18.7 µM (inactive) | 13.5 µM (inactive) | 9.31 µM (inactive) | 9.42 µM (inactive) | 20 µM (inactive) | 15.7 µM (inactive) | 8.41 µM (inactive) | 16.5 µM (inactive) | 11.1 µM (inactive) | 15 µM (inactive)
6 | CC(C)C1CC[C@@H](C)C[C@@]1(O)CC(N)=O (stereo not given in full) | > 100 µM (inactive) | > 100 µM (inactive) | > 100 µM (inactive) | > 100 µM (inactive) | > 100 µM (inactive) | > 100 µM (inactive) | > 100 µM (inactive) | > 100 µM (inactive) | > 100 µM (inactive) | – | – | > 100 µM (inactive) | > 100 µM (inactive) | – | > 100 µM (inactive)
7 | CC1=NC2(C(=O)O)C3(C(=O)O)N=C(C)OC3(C(F)(F)F)C2(C(F)(F)F)O1 (stereo not given) | > 100 µM (inactive) | > 100 µM (inactive) | > 100 µM (inactive) | > 100 µM (inactive) | – | > 100 µM (inactive) | > 100 µM (inactive) | > 100 µM (inactive) | > 100 µM (inactive) | > 100 µM (inactive) | > 100 µM (inactive) | > 100 µM (inactive) | > 100 µM (inactive) | > 100 µM (inactive) | > 100 µM (inactive)
8 | O=C(NCCCCNc1cccccc1=O)OCc1ccccc1 | > 100 µM (inactive) | > 100 µM (inactive) | > 100 µM (inactive) | 58.5 µM (inactive) | > 100 µM (inactive) | – | > 100 µM (inactive) | > 100 µM (inactive) | > 100 µM (inactive) | > 100 µM (inactive) | > 100 µM (inactive) | – | > 100 µM (inactive) | > 100 µM (inactive) | > 100 µM (inactive)
9 | COC(=O)C1CC2c3c(c4ccccc4n3C)CC(C1=O)N2C (stereo not given) | 36.4 µM (inactive) | 57.1 µM (inactive) | > 100 µM (inactive) | 21.4 µM (inactive) | – | 32.5 µM (inactive) | 67.8 µM (inactive) | 29 µM (inactive) | 49.5 µM (inactive) | 68.9 µM (inactive) | 78.9 µM (inactive) | 27.5 µM (inactive) | 34.8 µM (inactive) | 27.3 µM (inactive) | 37.8 µM (inactive)
10 | C#Cc1c(C)c(/C=C/C(C)=C/C(=O)OC)n(C)c1C | > 100 µM (inactive) | > 100 µM (inactive) | – | > 100 µM (inactive) | 40.3 µM (inactive) | > 100 µM (inactive) | > 100 µM (inactive) | 23.4 µM (inactive) | 94.6 µM (inactive) | 79.3 µM (inactive) | > 100 µM (inactive) | – | > 100 µM (inactive) | 12.1 µM (inactive) | > 100 µM (inactive)
11 | N#CCC(=O)N1CCCOCCC1 | > 100 µM (inactive) | > 100 µM (inactive) | > 100 µM (inactive) | > 100 µM (inactive) | – | > 100 µM (inactive) | > 100 µM (inactive) | 0.46 µM (active) | > 100 µM (inactive) | > 100 µM (inactive) | 44.8 µM (inactive) | – | 6.73 µM (inactive) | 58.7 µM (inactive) | > 100 µM (inactive)
12 | CC(C)N1CN(C(C(=O)N[C@@H]2C(=O)N3C2SC(C)(C)C3C(=O)O)c2ccc(O)cc2)CSC1=S (stereo not given in full) | – | > 100 µM (inactive) | > 100 µM (inactive) | > 100 µM (inactive) | 94.2 µM (inactive) | > 100 µM (inactive) | > 100 µM (inactive) | > 100 µM (inactive) | > 100 µM (inactive) | > 100 µM (inactive) | > 100 µM (inactive) | – | 16.9 µM (inactive) | > 100 µM (inactive) | > 100 µM (inactive)
13 | CC1C2C=C(O)C(=O)C(C2=O)C1c1ccccc1 (stereo not given) | > 100 µM (inactive) | > 100 µM (inactive) | > 100 µM (inactive) | > 100 µM (inactive) | > 100 µM (inactive) | > 100 µM (inactive) | – | > 100 µM (inactive) | > 100 µM (inactive) | > 100 µM (inactive) | > 100 µM (inactive) | > 100 µM (inactive) | > 100 µM (inactive) | – | > 100 µM (inactive)
14 | c1cc2ccc1C1NCCCN1CCN1CCCNC1c1ccc(cc1)C1NCCCN1CCN1CCCNC21 (stereo not given) | > 100 µM (inactive) | > 100 µM (inactive) | > 100 µM (inactive) | > 100 µM (inactive) | 70.6 µM (inactive) | > 100 µM (inactive) | > 100 µM (inactive) | > 100 µM (inactive) | > 100 µM (inactive) | > 100 µM (inactive) | 92.3 µM (inactive) | – | 18.5 µM (inactive) | 20.1 µM (inactive) | > 100 µM (inactive)
15 | CC(=O)C1(O)CC2(c3ccccc3)C(=O)C1(c1ccccc1)C(c1ccccc1)=C2c1ccccc1 (stereo not given) | 54.6 µM (inactive) | > 100 µM (inactive) | – | 58.5 µM (inactive) | 16.5 µM (inactive) | > 100 µM (inactive) | > 100 µM (inactive) | 39.6 µM (inactive) | 79.4 µM (inactive) | > 100 µM (inactive) | > 100 µM (inactive) | 85.1 µM (inactive) | > 100 µM (inactive) | 29.4 µM (inactive) | > 100 µM (inactive)
16 | CN(C)c1ccccc1CC(c1c[nH]c2ccccc12)c1c[nH]c2ccccc12 | 10.2 µM (inactive) | 5.38 µM (inactive) | 14.8 µM (inactive) | 10.9 µM (inactive) | – | 17.2 µM (inactive) | 3.1 µM (inactive) | 4.35 µM (inactive) | 14.2 µM (inactive) | 14.8 µM (inactive) | 11.8 µM (inactive) | 5.46 µM (inactive) | 6.7 µM (inactive) | 7.93 µM (inactive) | 4.36 µM (inactive)
17 | O=S(=O)(CC1=NC2C=CC=CC2N=C1)NCc1ccccc1 (stereo not given) | > 100 µM (inactive) | > 100 µM (inactive) | > 100 µM (inactive) | – | > 100 µM (inactive) | > 100 µM (inactive) | > 100 µM (inactive) | 69.5 µM (inactive) | > 100 µM (inactive) | > 100 µM (inactive) | > 100 µM (inactive) | – | > 100 µM (inactive) | 69.5 µM (inactive) | > 100 µM (inactive)
18 | CC(C)c1cc(C(C)C)c(S(=O)(=O)N=[N+]=[N-])c(C(C)C)c1 | > 100 µM (inactive) | – | – | > 100 µM (inactive) | 18.7 µM (inactive) | > 100 µM (inactive) | > 100 µM (inactive) | 21.3 µM (inactive) | > 100 µM (inactive) | 67.3 µM (inactive) | 47 µM (inactive) | 31.6 µM (inactive) | > 100 µM (inactive) | 22.9 µM (inactive) | > 100 µM (inactive)
19 | COc1cc(C(=O)C(CO)Oc2ccccc2OC)ccc1O (stereo not given) | > 100 µM (inactive) | > 100 µM (inactive) | – | > 100 µM (inactive) | – | > 100 µM (inactive) | > 100 µM (inactive) | > 100 µM (inactive) | > 100 µM (inactive) | > 100 µM (inactive) | – | 34.9 µM (inactive) | > 100 µM (inactive) | > 100 µM (inactive) | > 100 µM (inactive)
20 | COc1cc(C2C(Cl)C(=O)N2NC(=O)c2ccc(NC(C)=O)cc2)ccc1O (stereo not given) | > 100 µM (inactive) | > 100 µM (inactive) | > 100 µM (inactive) | > 100 µM (inactive) | > 100 µM (inactive) | > 100 µM (inactive) | > 100 µM (inactive) | > 100 µM (inactive) | > 100 µM (inactive) | > 100 µM (inactive) | > 100 µM (inactive) | – | > 100 µM (inactive) | > 100 µM (inactive) | –
